In the assay the target is T1, FcRn (Homo sapiens, UniProt P55899).
T1 construct: human soluble FcRn chemically biotinated with NHS-biotin
As to the kind of experiment: Biacore T100 measurement of dissociation constant of solid-phase synthesized peptide with immobilized FcRn. Format: binding. The procedure: In order to find whether a peptide alone interacts with FcRn in a pH dependent manner, the peptide 2G01D not having SGSGS on the C-terminal side of 8D-01 and amidated at the C-terminal was synthesized on a solid phase and a dissociation constant Kd binding constant was measured using Biacore T100 (GE Healthcare). FcRn was immobilized onto a sensor chip by an amine coupling method. The following is the peptide 2G01D:
On the other hand, a solid-phase synthesized peptide 2G01D was added as an analyte to a phosphate buffer having a pH 6.0 or 7.4 and a dissociation constant was measured.
For orientation: SPR reads the build-up and loss of mass on a sensor chip optically.

Bridge positions count the residues as written; N and C are the ends. Square brackets hold non-standard residues; d marks the D form. Peptide text beside a SMILES is read from it. Tyr(3-NO2) = N[C@@H](Cc1ccc(O)c([N+](=O)[O-])c1)C(=O)O; dTyr(3-NO2) = N[C@H](Cc1ccc(O)c([N+](=O)[O-])c1)C(=O)O; Arg(NO2) = N=C(NCCC[C@H](N)C(=O)O)N[N+](=O)[O-]

Usually koff stands for a measure of how fast the partners let go of each other. Low readings indicate slow dissociation, high ones fast dissociation. The kon is the second-order rate constant of association.

T1 sequence (P55899 24-297 limits assumed): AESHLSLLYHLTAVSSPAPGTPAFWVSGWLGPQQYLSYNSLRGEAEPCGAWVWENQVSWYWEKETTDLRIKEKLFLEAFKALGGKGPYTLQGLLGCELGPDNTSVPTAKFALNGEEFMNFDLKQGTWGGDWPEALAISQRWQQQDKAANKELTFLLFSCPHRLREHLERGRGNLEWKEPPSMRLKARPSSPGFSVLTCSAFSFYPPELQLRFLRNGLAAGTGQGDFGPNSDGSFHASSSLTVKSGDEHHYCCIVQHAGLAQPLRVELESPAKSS
T1 sequence (P61769 21-119 partner): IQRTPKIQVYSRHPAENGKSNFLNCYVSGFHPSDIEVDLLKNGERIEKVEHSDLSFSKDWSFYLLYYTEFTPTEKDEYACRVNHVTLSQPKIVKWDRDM

Under “pH 6.0, phosphate buffer”, `CC(C)C[C@@H]1NC(=O)[C@H](Cc2ccc(O)c([N+](=O)[O-])c2)NC(=O)[C@H](CC(C)C)NC(=O)[C@@H]2CCCN2C(=O)[C@H](CC(=O)O)NC(=O)CNC(=O)[C@H](CCCNC(=N)N[N+](=O)[O-])NC(=O)[C@H](CC(N)=O)NC(=O)[C@H](Cc2ccc(O)cc2)NC(=O)[C@H](CC(C)C)NC(=O)[C@H](Cc2ccc(O)c([N+](=O)[O-])c2)NC(=O)[C@H](Cc2ccccc2)NC(=O)[C@@H](Cc2ccc(O)c([N+](=O)[O-])c2)NC(=O)CSC[C@@H](C(=O)NCC(N)=O)NC1=O` [2G01D] ({CH2CO}-[dTyr(3-NO2)]F[Tyr(3-NO2)]LYN[Arg(NO2)]GDPL[Tyr(3-NO2)]LCG-NH2; thioether N-14) returned a koff of 0.00394 s⁻¹ and a kon of 925000 M⁻¹ s⁻¹. Also, where the note is “pH 7.4, phosphate buffer”, the koff came to 0.00955 s⁻¹ and the kon turned out to be 32600 M⁻¹ s⁻¹.

The values are drawn from patent US9574190B2, “Screening method for peptide binding to target molecule in pH-dependent manner” (The University of Tokyo, priority 2012, dated 2017).
